Experimental data reported in ChEMBL document CHEMBL5375953, “Discovery of Biaryl Amide Derivatives as Potent, Selective, and Orally Bioavailable RORγt Agonists for Cancer Immunotherapy” (J Med Chem, 2023).

Columns and labels:
[1] = molecular target: T1, Nuclear receptor ROR-gamma (Homo sapiens, UniProt P51449); assay: Inverse agonist activity at biotinylated APC-labeled RORgammat LBD (unknown origin) assessed as inhibition of europium-labeled SRC1 coactivator peptide recruitment incubated for 1 hr by dual FRET assay
T1 sequence (P51449 whole entry): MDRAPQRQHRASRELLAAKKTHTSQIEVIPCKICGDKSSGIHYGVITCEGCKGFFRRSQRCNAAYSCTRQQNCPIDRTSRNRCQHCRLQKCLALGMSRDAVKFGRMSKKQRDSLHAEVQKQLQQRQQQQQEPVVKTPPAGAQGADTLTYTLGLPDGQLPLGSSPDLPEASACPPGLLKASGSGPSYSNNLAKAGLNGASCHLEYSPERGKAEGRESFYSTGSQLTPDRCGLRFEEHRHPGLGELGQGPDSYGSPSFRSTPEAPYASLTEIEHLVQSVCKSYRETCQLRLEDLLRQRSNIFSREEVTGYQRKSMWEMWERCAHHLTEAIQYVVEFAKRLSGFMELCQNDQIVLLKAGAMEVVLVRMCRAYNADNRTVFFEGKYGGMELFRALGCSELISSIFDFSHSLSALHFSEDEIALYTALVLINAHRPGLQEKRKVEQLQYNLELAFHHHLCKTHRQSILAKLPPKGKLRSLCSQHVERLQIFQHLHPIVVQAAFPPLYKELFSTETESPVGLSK

[2] = Metabolic Stability in mouse liver microsome assessed as half life at […] measured upto 60 mins by HPLC-MS/MS analysis; type: ADME; settings: liver microsomes
[3] = Metabolic Stability in human liver microsome assessed as microsomal intrinsic clearance at […] measured upto 60 mins by HPLC-MS/MS analysis; type: ADME; settings: liver microsomes, read-out: CLH
[4] = Metabolic Stability in human liver microsome assessed as half life at […] measured upto 60 mins by HPLC-MS/MS analysis; type: ADME; settings: liver microsomes
[5] = Metabolic Stability in mouse liver microsome assessed as microsomal intrinsic clearance at […] measured upto 60 mins by HPLC-MS/MS analysis; type: ADME; settings: liver microsomes, read-out: CLH
[6] = molecular target: T1, Nuclear receptor ROR-gamma; assay: Agonist activity at biotinylated APC-labeled RORgammat LBD (unknown origin) assessed as increase in recruitment of europium-labeled SRC1 coactivator peptide incubated for 1 hr by dual FRET assay
[7] = tested on: B16-F10; assay: Antitumor activity against mouse B16-F10 cells xenografted in C57BL/6 mouse assessed as tumor growth inhibition at 50 mg/kg,ip administrated on day 7 for 8 days relative to control; type: functional; settings: B16-F10, 192 h, time 8 day, read-out: TGI
[8] = molecular target: T2, Nuclear receptor ROR-beta (Homo sapiens) (UniProt Q92753); assay: Agonist activity at human Gal4-fused RORbeta expressed in HEK293T cells assessed as luciferase activity by measuring maximal response incubated for 16 to 20 hrs by Luciferase reporter gene assay relative to control; type: cell-based; settings: filed as agonist, time 16-20 hrs
T2 sequence (whole entry): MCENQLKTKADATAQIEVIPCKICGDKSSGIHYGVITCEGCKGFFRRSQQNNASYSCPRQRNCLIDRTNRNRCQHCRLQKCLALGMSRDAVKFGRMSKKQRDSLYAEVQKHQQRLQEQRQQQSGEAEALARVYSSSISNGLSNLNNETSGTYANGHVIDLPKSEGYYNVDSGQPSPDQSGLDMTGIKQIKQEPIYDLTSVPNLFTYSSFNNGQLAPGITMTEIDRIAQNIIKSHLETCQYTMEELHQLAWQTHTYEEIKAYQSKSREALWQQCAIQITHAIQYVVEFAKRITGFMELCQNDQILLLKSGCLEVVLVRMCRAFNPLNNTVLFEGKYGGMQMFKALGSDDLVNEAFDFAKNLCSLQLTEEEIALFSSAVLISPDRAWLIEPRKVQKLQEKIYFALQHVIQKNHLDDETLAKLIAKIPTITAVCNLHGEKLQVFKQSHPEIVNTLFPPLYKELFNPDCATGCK

[9] = molecular target: T3, Nuclear receptor ROR-alpha (Homo sapiens) (UniProt P35398); assay: Agonist activity at human Gal4-fused RORalpha expressed in HEK293T cells assessed as luciferase activity by measuring maximal response incubated for 16 to 20 hrs by Luciferase reporter gene assay relative to control; type: cell-based; settings: filed as agonist, time 16-20 hrs
T3 sequence (whole entry): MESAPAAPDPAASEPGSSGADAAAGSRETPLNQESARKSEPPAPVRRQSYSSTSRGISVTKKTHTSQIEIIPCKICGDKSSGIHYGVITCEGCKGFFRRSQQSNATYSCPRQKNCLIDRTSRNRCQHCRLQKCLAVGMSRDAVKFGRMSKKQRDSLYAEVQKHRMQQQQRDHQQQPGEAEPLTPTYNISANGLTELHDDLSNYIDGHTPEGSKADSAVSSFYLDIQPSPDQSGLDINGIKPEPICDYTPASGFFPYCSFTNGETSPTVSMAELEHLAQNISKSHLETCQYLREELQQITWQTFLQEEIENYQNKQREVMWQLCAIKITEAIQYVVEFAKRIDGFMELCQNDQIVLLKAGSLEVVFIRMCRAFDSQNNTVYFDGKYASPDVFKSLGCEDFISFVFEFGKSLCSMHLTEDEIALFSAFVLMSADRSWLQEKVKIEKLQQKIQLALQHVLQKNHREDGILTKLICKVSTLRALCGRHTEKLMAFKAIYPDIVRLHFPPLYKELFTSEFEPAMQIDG

[10] = in vivo; settings: CD-1, mouse, po, 10 mg/kg
[11] = cells; settings: Mus musculus, CD4+ T cell, 96 h
Description: Induction of Th17 cells differentiation in mouse CD4+ T cell assessed as increase in CD4+ IL-17A production incubated for 4 days by flow cytometry analysis

[12] = molecular target: T4, Nuclear receptor ROR-alpha (Homo sapiens, UniProt P35398); assay: Agonist activity at human Gal4-fused RORalpha expressed in HEK293T cells assessed as luciferase activity incubated for 16 to 20 hrs by Luciferase reporter gene assay; type: cell-based
T4 sequence (P35398 whole entry): T3 sequence (whole entry)

[13] = molecular target: T5, Nuclear receptor ROR-beta (Homo sapiens, UniProt Q92753); assay: Agonist activity at human Gal4-fused RORbeta expressed in HEK293T cells assessed as luciferase activity incubated for 16 to 20 hrs by Luciferase reporter gene assay; type: cell-based
T5 sequence (Q92753 whole entry): T2 sequence (whole entry)

half-life [2] [min] | microsomal CLint [3] [µL/min/mg] | half-life [4] [min] | microsomal CLint [5] [µL/min/mg] | EC50 [6] [nM] | SMILES | also measured
– | – | – | – | – | CCS(=O)(=O)c1ccc(CC(=O)Nc2cc(Cl)c(-c3ccccc3)c(Cl)c2)cc1 | XC50 [1]: 9.2 nM
28 | > 554 | < 2.5 | 49.5 | – | CCS(=O)(=O)c1ccc(CNC(=O)c2cc(Cl)c(-c3ccc(CC(C)C)c(C#N)c3)c(Cl)c2)cc1 | –
– | – | – | – | 15.2 | CCS(=O)(=O)c1ccc(CC(=O)Nc2cc(Cl)c(-c3ccc(CC(C)C)c(F)c3)c(Cl)c2)cc1 | –
– | – | – | – | 20.7 | CCS(=O)(=O)c1ccc(CC(=O)Nc2cc(Cl)c(-c3ccc(C=C4CCC4)c(C#N)c3)c(Cl)c2)cc1 | –
– | – | – | – | 14.3 | CCS(=O)(=O)c1ccc(CC(=O)Nc2cc(Cl)c(-c3ccc(CC4CCCC4)c(C#N)c3)c(Cl)c2)cc1 | –
– | – | – | – | 12.7 | CCS(=O)(=O)c1ccc(CC(=O)Nc2cc(Cl)c(-c3ccc(CC(C)C)cc3)c(Cl)c2)cc1 | –
– | – | – | – | – | CC(C)(C[C@H]1CN(S(=O)(=O)c2cccc(C(F)(F)F)c2)c2cc(-c3cc(F)cc(OC(F)F)c3)ccc2O1)C(=O)O [CINTIRORGON] | inhibition in vivo at 50 mg/kg [7]: 45.3%; %max [8]: 100%; %max [9]: 67.3%; AUC(0-inf) at 24 h [10]: 3240 ng·h/mL; EC50 [11]: 9.8 nM; EC50 [12]: 2920 nM; EC50 [13]: 5430 nM
37.4 | 150 | 9.3 | 37 | – | CCS(=O)(=O)c1ccc(CC(=O)Nc2cc(Cl)c(-c3ccc(CC(C)C)c(C#N)c3)c(Cl)c2)nc1 | –
12.9 | – | – | 108 | – | CCS(=O)(=O)c1ccc(CC(=O)Nc2cc(Cl)c(-c3ccc(CN(C)C)c(C#N)c3)c(Cl)c2)cc1 | –
78.5 | 81.9 | 16.9 | 17.6 | – | CCC(C)Cc1ccc(-c2c(Cl)cc(NC(=O)Cc3ccc(S(=O)(=O)CC)cc3)cc2Cl)cc1C#N (stereo unspecified) | –
50.6 | 354 | 3.9 | 27.4 | – | CCS(=O)(=O)c1ccc(CNC(=O)Nc2cc(Cl)c(-c3ccc(CC(C)C)c(C#N)c3)c(Cl)c2)cc1 | –
37.7 | 533 | 2.6 | 36.7 | 12.2 | CCS(=O)(=O)c1ccc(CC(=O)Nc2cc(Cl)c(-c3ccc(CC(C)C)c(C#N)c3)c(Cl)c2)cc1 | EC50 [11]: 13 nM
